The values that follow come from patent US5726164A, “Nanosuspensions for intravenous administration” (Novartis Corporation, priority 1995, dated 1998).

One data set can be described thus: water solubility. Type of data set: physicochemical. Conditions: at room temperature. The text has this: A staurosporin derivative that is sparingly soluble in water is disclosed, for example, in U.S. Pat. No. 5,093,330 and is derived from staurosporin by additional substitution of the free hydrogen atom at the nitrogen of the N-methylamino substituent. Poor solubility in water is a characteristic property of staurosporin derivatives, which renders them unsuitable for intravenous dosage forms.

For data set [1] the following is noted: cited from earlier work.

Molecules are shown by their SMILES. “Also recorded” adds a separate entry of the source. Where only a bound is given, the exact number is not on record here.

One may read the solubility as the dissolved amount per volume that the medium holds. A higher solubility goes with much dissolved substance. `CO[C@@H]1[C@H](N(C)C(=O)c2ccccc2)C[C@H]2O[C@]1(C)n1c3ccccc3c3c4c(c5c6ccccc6n2c5c31)C(=O)NC4` [N-benzoyl-staurosporin] gave a solubility in “water solubility” of less than 0.1 µg/mL.

Take `CN[C@@H]1C[C@H]2O[C@@](C)([C@@H]1OC)n1c3ccccc3c3c4c(c5c6ccccc6n2c5c31)C(=O)NC4` [staurosporin]: the “water solubility (in words)” value in data set [1] is “particularly poor water solubility; also recorded: extremely low water solubility”.
